In paper PMC11992225, “Antibacterial compounds against non-growing and intracellular bacteria” (npj Antimicrobials and Resistance, 2025):
Several values for one entry are separate records, joined by “and”; a condition that tells them apart may be missing. Equal values may be shown once.

Columns and labels:
[1] = test system: non-growing S. aureus DSM2569; experiment: Dilution-regrowth assay (OD600, start-growth-time) on stationary-phase S. aureus; type: cell-based, Staphylococcus aureus; settings: Staphylococcus aureus, DSM2569; S. aureus; regrowth delay of non-growing bacteria, 1:4 CA-MHB pH 7.4, 24 h treatment, OD600 8 h after dilution; read-out: EC50
Procedure, shortened: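 Non-growing S. aureus was tested in a dilution-regrowth format. Cells were cultured and treated for 24 h in 1:4 diluted CA-MHB, pH 7.4, then diluted into drug-free medium, and OD600 was measured every 20 min. Start-growth-time was the time OD600 passed 0.12. Dose-response curves were fitted with a five-parameter logistic equation to derive EC50.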

non-growing UPEC CFT073 = experiment: Dose-dependent killing analysis (CFU spot-plating) of stationary-phase UPEC; type: cell-based, Escherichia coli
Procedure, shortened: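 Killing assessed by CFU counts: overnight 37 °C LB agar spot plates (10 μl drops of 10-fold PBS dilutions) scored at the lowest dilution with distinct colonies. Samples were compound-treated non-growing UPEC CFT073, 200 μl per well. Performed as three biological replicates.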

[2] = test system: non-growing P. aeruginosa DSM1117; experiment: Dose-dependent killing analysis (CFU spot-plating) of stationary-phase P. aeruginosa; type: cell-based, Pseudomonas aeruginosa; settings: P. aeruginosa; for log10(CFU/ml) of treated nongrowing bacteria (single replicates): before treatment 8.887
Procedure, shortened: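 Viability by CFU: samples serially diluted 10-fold in PBS, spotted on LB agar, grown overnight at 37 °C, and colonies counted at the lowest resolvable dilution. Non-growing P. aeruginosa DSM1117 had been dosed for 24 h in 1:4 CA-MHB (pH 7.4); three biological replicates.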

[3] = test system: non-growing S. aureus DSM2569; experiment: Dose-dependent killing analysis (CFU spot-plating) of stationary-phase S. aureus; type: cell-based, Staphylococcus aureus; settings: S. aureus; for log10(CFU/ml) of treated nongrowing bacteria (single replicates): before treatment 9,097
Procedure, shortened: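 Survival was scored as CFU after overnight growth at 37 °C on LB agar, using spots from 10-fold PBS dilutions of treated cultures. Non-growing S. aureus DSM2569 had been exposed to compound for 24 h in 1:4 CA-MHB, pH 7.4. Three biological replicates were run.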

## NC1CCN(c2nc3c(cc2F)c(=O)c(C(=O)O)cn3-c2ccc(F)cc2F)C1 (centres unmarked) [Tosufloxacin]
[1]
  EC50: 0.328 µM
non-growing UPEC CFT073; E. coli in 1:4 CA-MHB (pH 7.4), drug concentration 0.25
  killing, average Δlog10(CFU/ml): 0.576 log10(CFU/ml)
non-growing UPEC CFT073; E. coli in 1:4 CA-MHB (pH 7.4), drug concentration 0.25, before treatment 8.977
  log10(CFU/ml) of treated nongrowing bacteria (single replicates): 8.477 log10(CFU/ml) and 8.279 log10(CFU/ml) and 8.447 log10(CFU/ml)
non-growing UPEC CFT073; E. coli in 1:4 CA-MHB (pH 7.4), drug concentration 0.5
  killing, average Δlog10(CFU/ml): 0.736 log10(CFU/ml)
non-growing UPEC CFT073; E. coli in 1:4 CA-MHB (pH 7.4), drug concentration 0.5, before treatment 8.977
  log10(CFU/ml) of treated nongrowing bacteria (single replicates): 8.602 log10(CFU/ml) and 8.041 log10(CFU/ml) and 8.079 log10(CFU/ml)
non-growing UPEC CFT073; E. coli in 1:4 CA-MHB (pH 7.4), drug concentration 1
  killing, average Δlog10(CFU/ml): 1.185 log10(CFU/ml)
non-growing UPEC CFT073; E. coli in 1:4 CA-MHB (pH 7.4), drug concentration 1, before treatment 8.977
  log10(CFU/ml) of treated nongrowing bacteria (single replicates): 8.301 log10(CFU/ml) and 7.845 log10(CFU/ml) and 7.230 log10(CFU/ml)
non-growing UPEC CFT073; E. coli in 1:4 CA-MHB (pH 7.4), drug concentration 2.5
  killing, average Δlog10(CFU/ml): 2.064 log10(CFU/ml)
non-growing UPEC CFT073; E. coli in 1:4 CA-MHB (pH 7.4), drug concentration 2.5, before treatment 8.977
  log10(CFU/ml) of treated nongrowing bacteria (single replicates): 7.041 log10(CFU/ml) and 6.699 log10(CFU/ml) and 7.000 log10(CFU/ml)
non-growing UPEC CFT073; E. coli in 1:4 CA-MHB (pH 7.4), drug concentration 5
  killing, average Δlog10(CFU/ml): 2.460 log10(CFU/ml)
non-growing UPEC CFT073; E. coli in 1:4 CA-MHB (pH 7.4), drug concentration 5, before treatment 8.977
  log10(CFU/ml) of treated nongrowing bacteria (single replicates): 6.845 log10(CFU/ml) and 6.230 log10(CFU/ml) and 6.477 log10(CFU/ml)
non-growing UPEC CFT073; E. coli in 1:4 CA-MHB (pH 7.4), drug concentration 10
  killing, average Δlog10(CFU/ml): 2.856 log10(CFU/ml)
non-growing UPEC CFT073; E. coli in 1:4 CA-MHB (pH 7.4), drug concentration 10, before treatment 8.977
  log10(CFU/ml) of treated nongrowing bacteria (single replicates): 6.778 log10(CFU/ml) and 5.380 log10(CFU/ml) and 6.204 log10(CFU/ml)
non-growing UPEC CFT073; E. coli in LPM (pH 5.5), drug concentration 0.25
  killing, average Δlog10(CFU/ml): -0.097 log10(CFU/ml)
non-growing UPEC CFT073; E. coli in LPM (pH 5.5), drug concentration 0.25, before treatment 7.350
  log10(CFU/ml) of treated nongrowing bacteria (single replicates): 7.342 log10(CFU/ml) and 7.000 log10(CFU/ml) and 8.000 log10(CFU/ml)
non-growing UPEC CFT073; E. coli in LPM (pH 5.5), drug concentration 0.5
  killing, average Δlog10(CFU/ml): 0.356 log10(CFU/ml)
non-growing UPEC CFT073; E. coli in LPM (pH 5.5), drug concentration 0.5, before treatment 7.350
  log10(CFU/ml) of treated nongrowing bacteria (single replicates): 7.079 log10(CFU/ml) and 6.000 log10(CFU/ml) and 7.903 log10(CFU/ml)
non-growing UPEC CFT073; E. coli in LPM (pH 5.5), drug concentration 1
  killing, average Δlog10(CFU/ml): 0.195 log10(CFU/ml)
non-growing UPEC CFT073; E. coli in LPM (pH 5.5), drug concentration 1, before treatment 7.350
  log10(CFU/ml) of treated nongrowing bacteria (single replicates): 7.279 log10(CFU/ml) and 6.342 log10(CFU/ml) and 7.845 log10(CFU/ml)
non-growing UPEC CFT073; E. coli in LPM (pH 5.5), drug concentration 2.5
  killing, average Δlog10(CFU/ml): 0.183 log10(CFU/ml)
non-growing UPEC CFT073; E. coli in LPM (pH 5.5), drug concentration 2.5, before treatment 7.350
  log10(CFU/ml) of treated nongrowing bacteria (single replicates): 7.079 log10(CFU/ml) and 6.519 log10(CFU/ml) and 7.903 log10(CFU/ml)
non-growing UPEC CFT073; E. coli in LPM (pH 5.5), drug concentration 5
  killing, average Δlog10(CFU/ml): 0.243 log10(CFU/ml)
non-growing UPEC CFT073; E. coli in LPM (pH 5.5), drug concentration 5, before treatment 7.350
  log10(CFU/ml) of treated nongrowing bacteria (single replicates): 7.146 log10(CFU/ml) and 6.699 log10(CFU/ml) and 7.477 log10(CFU/ml)
non-growing UPEC CFT073; E. coli in LPM (pH 5.5), drug concentration 10
  killing, average Δlog10(CFU/ml): 0.735 log10(CFU/ml)
non-growing UPEC CFT073; E. coli in LPM (pH 5.5), drug concentration 10, before treatment 7.350
  log10(CFU/ml) of treated nongrowing bacteria (single replicates): 6.591 log10(CFU/ml) and 6.255 log10(CFU/ml) and 7.000 log10(CFU/ml)
[2]; drug concentration 0.1
  killing, average Δlog10(CFU/ml): 0.209 log10(CFU/ml)
  log10(CFU/ml) of treated nongrowing bacteria (single replicates): 8.477 log10(CFU/ml) and 8.954 log10(CFU/ml) and 8.602 log10(CFU/ml)
[2]; drug concentration 0.5
  killing, average Δlog10(CFU/ml): 1.194 log10(CFU/ml)
  log10(CFU/ml) of treated nongrowing bacteria (single replicates): 7.477 log10(CFU/ml) and 7.903 log10(CFU/ml) and 7.699 log10(CFU/ml)
[2]; drug concentration 2.5
  killing, average Δlog10(CFU/ml): 3.719 log10(CFU/ml)
  log10(CFU/ml) of treated nongrowing bacteria (single replicates): 5.602 log10(CFU/ml) (2×) and 4.301 log10(CFU/ml)
[2]; drug concentration 10
  killing, average Δlog10(CFU/ml): 4.787 log10(CFU/ml)
  log10(CFU/ml) of treated nongrowing bacteria (single replicates): =<4 log10(CFU/ml) (2×) and 4.301 log10(CFU/ml)
[3]; drug concentration 0.1
  killing, average Δlog10(CFU/ml): 0.037 log10(CFU/ml)
  log10(CFU/ml) of treated nongrowing bacteria (single replicates): 8.845 log10(CFU/ml) and 9.301 log10(CFU/ml) and 9.033 log10(CFU/ml)
[3]; drug concentration 0.5
  killing, average Δlog10(CFU/ml): 0.330 log10(CFU/ml)
  log10(CFU/ml) of treated nongrowing bacteria (single replicates): 8.690 log10(CFU/ml) and 8.869 log10(CFU/ml) and 8.740 log10(CFU/ml)
[3]; drug concentration 2.5
  killing, average Δlog10(CFU/ml): 0.522 log10(CFU/ml)
  log10(CFU/ml) of treated nongrowing bacteria (single replicates): 8.580 log10(CFU/ml) and 8.898 log10(CFU/ml) and 8.248 log10(CFU/ml)
[3]; drug concentration 10
  killing, average Δlog10(CFU/ml): 0.688 log10(CFU/ml)
  log10(CFU/ml) of treated nongrowing bacteria (single replicates): 8.531 log10(CFU/ml) and 8.663 log10(CFU/ml) and 8.033 log10(CFU/ml)
